The values that follow come from patent US20250101041A1, “POSITIVE ALLOSTERIC MODULATORS OF THE MUSCARINIC ACETYLCHOLINE RECEPTOR M4” (Vanderbilt University, priority 2022, published 2025).

The experiment addresses T1, human mAChR M4 (Homo sapiens, UniProt P08173).
T1 construct: expressed in transfected cells; host or cells: CHO-K1 (American Type Culture Collection), stably expressing hM4 and Gqi5
T1 sequence (P08173 1-479): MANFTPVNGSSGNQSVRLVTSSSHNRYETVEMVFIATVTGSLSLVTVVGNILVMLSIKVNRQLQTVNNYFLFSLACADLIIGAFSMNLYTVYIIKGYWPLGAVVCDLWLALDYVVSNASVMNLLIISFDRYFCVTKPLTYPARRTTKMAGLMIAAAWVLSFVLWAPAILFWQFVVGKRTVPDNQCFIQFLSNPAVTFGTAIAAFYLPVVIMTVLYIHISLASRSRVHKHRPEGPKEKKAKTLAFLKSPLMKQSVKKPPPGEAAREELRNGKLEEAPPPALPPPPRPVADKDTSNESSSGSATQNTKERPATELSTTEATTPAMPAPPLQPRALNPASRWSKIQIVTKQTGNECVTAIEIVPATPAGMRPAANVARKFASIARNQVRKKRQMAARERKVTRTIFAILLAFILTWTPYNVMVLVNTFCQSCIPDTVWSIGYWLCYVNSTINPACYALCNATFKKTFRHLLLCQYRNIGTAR
Nature of the experiment: mAChR M4 cell-based functional assay: calcium mobilization (Fluo-4, FDSS), potentiation of EC20 acetylcholine response in hM4-Gqi5 CHO-K1 cells. The settings on record: human M4; for Emax at 30 µM: CHO-K1, % ACh maximum at 30 μM; for EC50: potentiation of EC20 acetylcholine response, calcium mobilization. The method, boiled down: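 CHO-K1 cells stably co-expressing human M4 and chimeric Gqi5, loaded with Fluo-4 AM (50 min, 37 °C). Compounds in 11-point 1:3 series added first; EC20 acetylcholine added at 144 s and again at 230 s. Calcium read on FDSS at 1 Hz; EC50 and Emax from four-parameter logistic fit of potentiated EC20 response.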
On the technique in general: A change in cytosolic calcium serves as a functional read-out for many receptors and channels.

Each structure is given as a SMILES string.

For orientation: Emax means the size of the effect at its maximum, as opposed to the concentration needed. The EC50 is the concentration needed to bring the measured effect to its halfway point. Regarding `Cc1cc(=O)n2nc(N3CCc4ncc(-c5ccccc5C(F)(F)F)cc4C3)c(C)cc2n1` [Compound 1-255, 2,8-dimethyl-7-(3-(2-(trifluoromethyl)phenyl)-7,8-dihydro-1,6-naphthyridin-6(5H)-yl)-4H-pyrimido[1,2-b] pyridazin-4-one], the maximum response (Emax) at 30 µM was 60% and the EC50 was 2370 nM.

On to `Cc1cc(=O)n2nc(N3CCc4ncc(-c5ccccc5Cl)cc4C3)c(C)cc2n1` [Compound 1-256, 7-(3-(2-chlorophenyl)-7,8-dihydro-1,6-naphthyridin-6(5H)-yl)-2,8-dimethyl-4H-pyrimido[1,2-b]pyridazin-4-one], for which the Emax at 30 µM was found to be 71% and the EC50 turned out to be 578 nM.

Regarding `Cc1cc(=O)n2nc(N3CCc4ncc(-c5ccc(F)cc5F)cc4C3)c(C)cc2n1` [Compound 1-257, 7-(3-(2,4-difluorophenyl)-7,8-dihydro-1,6-naphthyridin-6(5H)-yl)-2,8-dimethyl-4H-pyrimido[1,2-b]pyridazin-4-one], the Emax at 30 µM came to 76% and the EC50 worked out at 339 nM.

Turning to `Cc1cc(=O)n2nc(N3CCc4ncc(-c5cc(F)ncc5F)cc4C3)c(C)cc2n1` [Compound 1-258, 7-(3-(2,5-difluoropyridin-4-yl)-7,8-dihydro-1,6-naphthyridin-6(5H)-yl)-2,8-dimethyl-4H-pyrimido[1,2-b]pyridazin-4-one], the Emax at 30 µM amounted to 67% and the EC50 was found to be 363 nM.

`COc1cnccc1-c1cnc2c(c1)CN(c1nn3c(=O)cc(C)nc3cc1C)CC2` [Compound 1-259, 7-(3-(3-methoxypyridin-4-yl)-7,8-1,6-naphthyridin-6(5H)-yl)-2,8-dimethyl-4H-pyrimido[1,2-b]pyridazin-4-one]: the Emax at 30 µM is 72% and the EC50 turned out to be 445 nM.

As for `Cc1cc(=O)n2nc(N3CCc4ncc(-c5cnccn5)cc4C3)c(C)cc2n1` [Compound 1-260, 2,8-dimethyl-7-(3-(pyrazin-2-yl)-7,8-dihydro-1,6-naphthyridin-6(5H)-yl)-4H-pyrimido[1,2-b]pyridazin-4-one], the Emax at 30 µM is 83% and the EC50 came to 97 nM.

`COCc1cc(=O)n2nc(N3CCc4ncc(-c5cnccn5)cc4C3)c(C)c(C)c2n1` [Compound 1-261, 2-(methoxymethyl)-8,9-dimethyl-7-(3-(pyrazin-2-yl)-7,8-dihydro-1,6-naphthyridin-6(5H)-yl)-4H-pyrimido[1,2-b]pyridazin-4-one]: the Emax at 30 µM amounted to 94% and the EC50 came to 20 nM.

For `COCc1cc(=O)n2nc(N3CCc4ncc(-c5cnc(OC)cc5C)cc4C3)c(C)c(C)c2n1` [Compound 1-262, 7-(3-(6-methoxy-4-methylpyridin-3-yl)-7,8-dihydro-1,6-naphthyridin-6(5H)-yl)-2-(methoxymethyl)-8,9-dimethyl-4H-pyrimido[1,2-b]pyridazin-4-one], the Emax at 30 µM stood at 99% and the EC50 came to 1750 nM.

In the case of `COCc1cc(=O)n2nc(N3CCc4ncc(-c5cnn(C6CC6)c5)cc4C3)c(C)c(C)c2n1` [Compound 1-263, 7-(3-(1-cyclopropyl-1H-pyrazol-4-yl)-7,8-dihydro-1,6-naphthyridin-6(5H)-yl)-2-(methoxymethyl)-8,9-dimethyl-4H-pyrimido[1,2-b]pyridazin-4-one], the Emax at 30 µM worked out at 86% and the EC50 stood at 96 nM.

On to `Cc1cc(F)ccc1-c1cnc2c(c1)CN(c1nn3c(=O)ccnc3c(C)c1C)CC2` [Compound 1-264, 7-(3-(4-fluoro-2-methylphenyl)-7,8-dihydro-1,6-naphthyridin-6(5H)-yl)-8,9-dimethyl-4H-pyrimido[1,2-b]pyridazin-4-one], for which the Emax at 30 µM worked out at 98% and the EC50 was 222 nM.

In the case of `Cc1c(N2CCc3ncc(-c4ccccc4OC(F)(F)F)cc3C2)nn2c(=O)ccnc2c1C` [Compound 1-265, 8,9-dimethyl-7-(3-(2-(trifluoromethoxy)phenyl)-7,8-dihydro-1,6-naphthyridin-6(5H)-yl)-4H-pyrimido[1,2-b] pyridazin-4-one], the Emax at 30 µM was 61% and the 50% effective concentration (EC50) was 929 nM.

With `Cc1c(N2CCc3ncc(-c4ccccc4C(F)(F)F)cc3C2)nn2c(=O)ccnc2c1C` [Compound 1-266, 8,9-dimethyl-7-(3-(2-(trifluoromethyl)phenyl)-7,8-dihydro-1,6-naphthyridin-6(5H)-yl)-4H-pyrimido[1,2-b] pyridazin-4-one], the Emax at 30 µM amounted to 81% and the EC50 was 621 nM.

Turning to `Cc1c(N2CCc3ncc(-c4ccccc4Cl)cc3C2)nn2c(=O)ccnc2c1C` [Compound 1-267, 7-(3-(2-chlorophenyl)-7,8-dihydro-1,6-naphthyridin-6(5H)-yl)-8,9-dimethyl-4H-pyrimido[1,2-b]pyridazin-4-one], the Emax at 30 µM came to 89% and the concentration giving a half-maximal response (EC50) stood at 183 nM.

Regarding `Cc1c(N2CCc3ncc(-c4cc(F)ncc4F)cc3C2)nn2c(=O)ccnc2c1C` [Compound 1-268, 7-(3-(2,5-difluoropyridin-4-yl)-7,8-dihydro-1,6-naphthyridin-6(5H)-yl)-8,9-dimethyl-4H-pyrimido[1,2-b]pyridazin-4-one], the Emax at 30 µM worked out at 83% and the concentration giving a half-maximal response (EC50) amounted to 230 nM.

With `COc1cnccc1-c1cnc2c(c1)CN(c1nn3c(=O)ccnc3c(C)c1C)CC2` [Compound 1-269, 7-(3-(3-methoxypyridin-4-yl)-7,8-dihydro-1,6-naphthyridin-6(5H)-yl)-8,9-dimethyl-4H-pyrimido[1,2-b]pyridazin-4-one], the Emax at 30 µM came to 88% and the 50% effective concentration (EC50) was 211 nM.

For `COCc1c(N2CCc3ncc(C(F)(F)F)cc3C2)nn2c(=O)ccnc2c1C` [Compound 1-270, 8-(methoxymethyl)-9-methyl-7-(3-(trifluoromethyl)-7,8-dihydro-1,6-naphthyridin-6(5H)-yl)-4H-pyrimido[1,2-b]pyridazin-4-one], the maximum response (Emax) at 30 µM came to 95% and the EC50 was 33 nM.

As for `COCc1c(N2CCc3ncc(-c4ccc(C)nc4)cc3C2)nn2c(=O)ccnc2c1C` [Compound 1-271, 8-(methoxymethyl)-9-methyl-7-(3-(6-methylpyridin-3-yl)-7,8-dihydro-1,6-naphthyridin-6(5H)-yl)-4H-pyrimido[1,2-b] pyridazin-4-one], the maximum response (Emax) at 30 µM was determined as 87% and the EC50 came out at 70 nM.

On to `Cc1cc(F)c(F)c(-c2cnc3c(c2)CN(c2nn4c(=O)cc(C)nc4c(C)c2C)CC3)c1` [Compound 1-272, 7-(3-(2,3-difluoro-5-methylphenyl)-7,8-dihydro-1,6-naphthyridin-6(5H)-yl)-2,8,9-trimethyl-4H-pyrimido[1,2-b]pyridazin-4-one], for which the Emax at 30 µM was 82% and the EC50 came out at 810 nM.

Regarding `Cc1cc(=O)n2nc(N3CCc4ncc(-c5cc(F)cc(F)c5F)cc4C3)c(C)c(C)c2n1` [Compound 1-273, 2,8,9-trimethyl-7-(3-(2,3,5-trifluorophenyl)-7,8-dihydro-1,6-naphthyridin-6(5H)-yl)-4H-pyrimido[1,2-b]pyridazin-4-one], the Emax at 30 µM is 75% and the EC50 was 1090 nM.

Consider `Cc1cc(=O)n2nc(N3CCc4ncc(-c5ccc(F)cc5C)cc4C3)c(C)c(C)c2n1` [Compound 1-274, 7-(3-(4-fluoro-2-methylphenyl)-7,8-dihydro-1,6-naphthyridin-6(5H)-yl)-2,8,9-trimethyl-4H-pyrimido[1,2-b]pyridazin-4-one], for which the Emax at 30 µM came to 84% and the EC50 is 448 nM.
